Experiments:
[1] = target: T1, Mu-type opioid receptor (Cavia porcellus, UniProt P97266); assay: Binding affinity determined on Opioid receptor mu 1 in Guinea pig brain membranes using radioligand [3H]DAMGO.; assay type: cell membranes, Membrane
[2] = target: T2, Kappa-type opioid receptor (Cavia porcellus, UniProt P41144); assay: Binding affinity determined on Opioid receptor kappa 1 in Guinea pig brain membranes using radioligand [3H]U-69593; assay type: cell membranes, Membrane
[3] = target: Kappa-type opioid receptor (Cavia porcellus) (UniProt P41144); assay: Inhibition against Opioid receptor kappa 1 using selective ligand [3H]U-69593; set-up: concentration or dose not given beside the values; settings: concentration not given here
[4] = target: T2, Kappa-type opioid receptor; assay: Inhibition of [35S]GTP-gamma-S, binding from Opioid receptor kappa 1 in Guinea pig Caudate stimulated by U69,593; assay type: functional
[5] = target: T1, Mu-type opioid receptor; assay: Inhibition of [35S]GTP-gamma-S, binding from Opioid receptor mu 1 in Guinea pig Caudate stimulated by DAMGO; assay type: functional
[6] = target: T1, Mu-type opioid receptor; assay: Binding affinity determined on Opioid receptor mu 1 in Guinea pig brain membranes using radioligand [3H]DAMGO; assay type: cell membranes, Membrane

T1 sequence (P97266 whole entry): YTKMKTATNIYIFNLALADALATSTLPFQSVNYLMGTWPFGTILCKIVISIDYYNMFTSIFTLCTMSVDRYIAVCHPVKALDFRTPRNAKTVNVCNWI
T2 sequence (P41144 whole entry): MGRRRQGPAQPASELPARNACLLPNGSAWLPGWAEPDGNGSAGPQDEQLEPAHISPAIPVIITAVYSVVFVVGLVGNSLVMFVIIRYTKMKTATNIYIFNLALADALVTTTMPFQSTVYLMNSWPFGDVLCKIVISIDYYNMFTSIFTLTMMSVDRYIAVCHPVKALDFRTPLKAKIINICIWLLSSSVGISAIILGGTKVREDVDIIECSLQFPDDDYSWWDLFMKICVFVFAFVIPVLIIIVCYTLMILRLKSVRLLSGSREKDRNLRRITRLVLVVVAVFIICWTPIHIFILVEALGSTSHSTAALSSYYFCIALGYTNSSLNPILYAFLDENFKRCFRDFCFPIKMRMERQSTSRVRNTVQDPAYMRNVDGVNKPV
Kappa-type opioid receptor (Cavia porcellus), sequence (P41144 whole entry): as above

Row | SMILES | inhibition [3] [%] | other results
1 | CC1CN(C[C@@H](NC(=O)CCc2ccc(O)cc2)C2CCCCC2)CCC1(C)c1cccc(O)c1 (some centres not stated) | – | Ki [1]: 234 nM; Ki [2]: 83.1 nM
2 | CC1CN(CCNC(=O)CCc2ccc(O)cc2)CCC1(C)c1cccc(O)c1 (configuration not stated) | 11 | –
3 | CC(C)C(CN1CCC(C)(c2cccc(O)c2)C(C)C1)NC(=O)CCc1ccc(O)c(O)c1 (configuration not stated) | 31 | –
4 | COc1cc(CCC(=O)NC(CN2CCC(C)(c3cccc(O)c3)C(C)C2)C(C)C)ccc1O (configuration not stated) | 42 | –
5 | CC(C)C(CN1CCC(C)(c2cccc(O)c2)C(C)C1)NC(=O)CCc1ccc(F)cc1 (configuration not stated) | 26 | –
6 | CC1CN(CC(c2ccccc2)N(C)C(=O)CCc2ccc(O)cc2)CCC1(C)c1cccc(O)c1 (configuration not stated) | 7 | –
7 | CC(C)[C@@H](CN1CC[C@@](C)(c2cccc(O)c2)[C@@H](C)C1)NC(=O)CCc1ccccc1 | 28 | –
8 | CC(C)C(CN1CCC(C)(c2cccc(O)c2)C(C)C1)NC(=O)CCc1ccccc1O (configuration not stated) | 25 | –
9 | CC(CN1CCC(C)(c2cccc(O)c2)C(C)C1)NC(=O)CCc1ccc(O)cc1 (configuration not stated) | 20 | –
10 | COc1ccc(CCC(=O)NC(CN2CCC(C)(c3cccc(O)c3)C(C)C2)C(C)C)cc1 (configuration not stated) | 16 | –
11 | CC1CN(CCN(C)C(=O)CCc2ccc(O)cc2)CCC1(C)c1cccc(O)c1 (configuration not stated) | 0 | –
12 | C[S+](C)[O-] | 4 | –
13 | CC(C)[C@@H](CN1CC[C@@](C)(c2cccc(O)c2)[C@@H](C)C1)NC(=O)CCc1ccc(O)cc1 | 71 | Ki [4]: 4.7 nM; Ki [5]: 7.25 nM; Ki [2]: 6.91 nM; Ki [6]: 393 nM
14 | CC(C)C[C@@H](CN1CCC(C)(c2cccc(O)c2)C(C)C1)NC(=O)CCc1ccc(O)cc1 (some centres not stated) | – | Ki [6]: 398 nM
15 | CC(C)[C@H](CN1CC[C@@](C)(c2cccc(O)c2)[C@@H](C)C1)NC(=O)CCc1ccc(O)cc1 | 11 | –
16 | CC(C)C(CN1CCC(C)(c2cccc(O)c2)C(C)C1)NC(=O)Cc1ccc(O)cc1 (configuration not stated) | 6 | –
17 | CC(C)C(CN1CCC(C)(c2cccc(O)c2)C(C)C1)NC(=O)CCc1cccc(O)c1 (configuration not stated) | 20 | –
18 | CCC(C)[C@@H](CN1CCC(C)(c2cccc(O)c2)C(C)C1)NC(=O)CCc1ccc(O)cc1 (some centres not stated) | – | Ki [1]: 421 nM; Ki [2]: 8.84 nM
19 | CC(CN1CCC(C)(c2cccc(O)c2)C(C)C1)N(C)C(=O)CCc1ccc(O)cc1 (configuration not stated) | 1 | –
20 | C[C@@H]1CN(C/C=C/c2ccccc2)CC[C@]1(C)c1cccc(O)c1 | – | Ki [4]: 1.04 nM; Ki [5]: 0.039 nM; Ki [2]: 122 nM; Ki [6]: 0.74 nM
21 | CC1CN(C[C@H](Cc2ccccc2)NC(=O)CCc2ccc(O)cc2)CCC1(C)c1cccc(O)c1 (some centres not stated) | – | Ki [1]: 9.6 nM
22 | Oc1ccc2c3c1O[C@H]1c4[nH]c5c(c4C[C@@]4(O)[C@@H](C2)N(CC2CC2)CC[C@]314)C[C@@]1(O)[C@H]2Cc3ccc(O)c4c3[C@@]1(CCN2CC1CC1)[C@H]5O4 [NORBINALTORPHIMINE] | – | Ki [5]: 16.7 nM
23 | CC(C)C(CN1CCC(C)(c2cccc(O)c2)C(C)C1)NC(=O)/C=C/c1ccc(O)cc1 (configuration not stated) | 15 | –

Source: ChEMBL document CHEMBL1131434, “Identification of an opioid kappa receptor subtype-selective N-substituent for (+)-(3R,4R)-dimethyl-4-(3-hydroxyphenyl)piperidine” (J Med Chem, 1998)
